One assay deals with T1, CBP (Homo sapiens, UniProt Q92793).
T1 construct: endogenous in cells; host or cells: 22Rv1 (ATCC CRL-2505) human prostate cancer cells
Description: CBP degradation in 22Rv1 cells (5 h). As to conditions: 22Rv1 cells, 5 h; for Dmax: 22Rv1, 5 h, read-out: CBP Degradation (22Rv1, 5 h) DCmax. The class given is cell-based. From the text:
Biological Assays. […] Cells with 3-8 passages after purchase were used in experiments.

Another assay deals with HL60. In words: Cell growth inhibition in HL60. Format: cell-based. Particulars: Homo sapiens, HL-60, HL60 cells; read-out: Cell Growth Inhibition (IC50) HL60.
The test system of a further assay is 22Rv1 cells. Description: Cell growth inhibition assay (CellTiter-Glo) in 22Rv1. The class given is cell-based, human. As to conditions: 22Rv1 cells, 96 h incubation, read-out: Cell Growth Inhibition (IC50) 22Rv1. As for the experimental part: Biological Assays. CBP/p300 degradation activity and cell growth inhibition were evaluated in the human prostate cancer cell line 22Rv1 (ATCC© CRL-2505™) purchased from the American Type Culture Collection (ATCC), Manassas, VA, and maintained and cultured in Dulbecco's Modified Eagle's medium (DMEM) containing 10% fetal bovine serum, 1 unit/ml of penicillin and 1 μg/ml of streptomycin. Cells with 3-8 passages after purchase were used in experiments.
Cell Growth Inhibition Assay Protocol. 22RV1 cells were seeded at a concentration of 4000 cells/well in 100 μl culture medium and 2 μl of test compound (final concentration start from 10 μM and 3 times dilution) into 96 well microplates (Corning 3903). The cell cultures were incubated for 96 h at +37° C. and 5% CO2. The plate and its contents were equilibrated to room temperature for approximately 30 minutes. 100 μl of CellTiter-Glo® 2.0 Reagent equal to the volume of cell culture medium present was added in each well. The contents were mixed for 2 minutes on an orbital shaker. The plate was allowed to incubate at room temperature for 10 minutes. The luminescence was recorded. The data was analyzed by Prism GraphPad 8.

pIC50: −log10 of the molar value. Where two headings read alike, the source gives them in different places. A value given as a limit tells only on which side of the number the result lay.

T1 sequence (Q92793 whole entry): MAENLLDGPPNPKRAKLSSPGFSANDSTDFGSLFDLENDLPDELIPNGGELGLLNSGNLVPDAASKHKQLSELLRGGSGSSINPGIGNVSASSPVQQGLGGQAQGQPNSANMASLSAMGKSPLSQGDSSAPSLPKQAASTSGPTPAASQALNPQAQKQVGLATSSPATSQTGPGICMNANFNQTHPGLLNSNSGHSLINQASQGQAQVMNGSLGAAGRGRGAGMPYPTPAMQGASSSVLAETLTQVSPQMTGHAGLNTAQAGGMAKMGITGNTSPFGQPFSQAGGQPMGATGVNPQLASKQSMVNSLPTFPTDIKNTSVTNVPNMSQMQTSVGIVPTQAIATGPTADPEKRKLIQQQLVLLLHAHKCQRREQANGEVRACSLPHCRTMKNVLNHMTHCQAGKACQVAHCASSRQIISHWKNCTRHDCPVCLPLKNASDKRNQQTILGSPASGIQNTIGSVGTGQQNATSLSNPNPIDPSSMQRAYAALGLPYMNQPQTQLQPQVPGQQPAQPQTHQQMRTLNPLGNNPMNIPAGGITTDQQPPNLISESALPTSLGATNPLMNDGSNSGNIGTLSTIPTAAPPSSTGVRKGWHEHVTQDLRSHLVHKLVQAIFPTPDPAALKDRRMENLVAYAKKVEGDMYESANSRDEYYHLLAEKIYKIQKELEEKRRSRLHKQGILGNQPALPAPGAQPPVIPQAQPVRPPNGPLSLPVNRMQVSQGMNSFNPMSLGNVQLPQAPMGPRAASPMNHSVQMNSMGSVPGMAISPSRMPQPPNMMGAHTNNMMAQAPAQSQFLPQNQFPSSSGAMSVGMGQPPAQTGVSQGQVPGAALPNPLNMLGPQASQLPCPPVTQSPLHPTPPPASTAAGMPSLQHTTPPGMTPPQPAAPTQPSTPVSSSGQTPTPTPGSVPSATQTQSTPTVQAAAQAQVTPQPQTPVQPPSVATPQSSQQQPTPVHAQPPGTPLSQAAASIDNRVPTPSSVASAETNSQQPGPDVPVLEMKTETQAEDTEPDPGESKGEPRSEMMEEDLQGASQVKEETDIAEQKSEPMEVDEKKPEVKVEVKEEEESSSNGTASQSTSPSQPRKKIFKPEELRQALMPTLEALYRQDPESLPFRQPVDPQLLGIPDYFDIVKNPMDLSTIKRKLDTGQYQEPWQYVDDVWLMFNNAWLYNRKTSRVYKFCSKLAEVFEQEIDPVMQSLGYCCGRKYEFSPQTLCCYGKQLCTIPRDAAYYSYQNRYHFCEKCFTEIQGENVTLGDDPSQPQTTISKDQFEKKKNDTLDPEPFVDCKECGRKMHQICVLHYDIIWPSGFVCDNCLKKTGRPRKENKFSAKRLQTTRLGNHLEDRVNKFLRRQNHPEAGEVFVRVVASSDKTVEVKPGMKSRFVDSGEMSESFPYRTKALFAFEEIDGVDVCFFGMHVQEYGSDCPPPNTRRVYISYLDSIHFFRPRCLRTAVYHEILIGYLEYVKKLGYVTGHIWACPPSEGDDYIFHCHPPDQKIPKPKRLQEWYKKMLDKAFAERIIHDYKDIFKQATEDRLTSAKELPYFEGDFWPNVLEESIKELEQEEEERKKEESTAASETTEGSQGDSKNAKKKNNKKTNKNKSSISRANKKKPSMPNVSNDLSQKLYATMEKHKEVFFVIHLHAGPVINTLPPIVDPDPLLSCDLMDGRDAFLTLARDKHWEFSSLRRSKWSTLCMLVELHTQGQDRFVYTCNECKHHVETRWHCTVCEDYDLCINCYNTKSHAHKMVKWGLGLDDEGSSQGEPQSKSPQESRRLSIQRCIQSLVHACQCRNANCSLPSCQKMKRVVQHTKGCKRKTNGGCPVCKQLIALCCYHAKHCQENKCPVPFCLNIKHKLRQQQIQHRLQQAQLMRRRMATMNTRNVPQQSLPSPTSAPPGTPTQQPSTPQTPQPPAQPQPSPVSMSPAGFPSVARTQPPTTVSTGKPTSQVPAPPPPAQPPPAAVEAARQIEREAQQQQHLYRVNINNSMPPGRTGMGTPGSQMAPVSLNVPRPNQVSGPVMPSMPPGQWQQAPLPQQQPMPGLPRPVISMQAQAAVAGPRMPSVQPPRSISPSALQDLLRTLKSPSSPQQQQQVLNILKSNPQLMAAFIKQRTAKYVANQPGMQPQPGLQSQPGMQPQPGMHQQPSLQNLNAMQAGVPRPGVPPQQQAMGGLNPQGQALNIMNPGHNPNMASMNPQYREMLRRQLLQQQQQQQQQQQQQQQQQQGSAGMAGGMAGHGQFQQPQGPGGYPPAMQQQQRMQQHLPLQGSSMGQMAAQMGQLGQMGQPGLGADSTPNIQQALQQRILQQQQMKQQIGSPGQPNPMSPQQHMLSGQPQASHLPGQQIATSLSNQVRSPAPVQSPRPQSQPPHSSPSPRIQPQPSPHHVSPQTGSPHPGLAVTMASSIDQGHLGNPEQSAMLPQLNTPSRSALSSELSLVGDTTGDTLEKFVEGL

What is called DC50 is the concentration giving 50% degradation. A higher DC50 goes with a less potent degrader. Broadly, the pIC50 is the negative decadic logarithm of the IC50, by convention in mol/L. As to `CC(=O)N1CCc2c(c(N3CCCc4cc(-c5cnn(C)c5)c(C(F)F)cc43)nn2C2CCC(C(=O)N3Cc4cc5c(cc4C3)C(=O)N(C3CCC(=O)NC3=O)C5=O)CC2)C1` (stereo not drawn) [CP-033, 6-(4-(5-acetyl-3-(7-(difluoromethyl)-6-(1-methyl-1H-pyrazol-4-yl)-3,4-dihydroquinolin-1(2H)-yl)-4,5,6,7-tetrahydro-1H-pyrazolo[4,3-c]pyridin-1-yl)cyclohexane-1-carbonyl)-2-(2,6-dioxopiperidin-3-yl)-6,7-dihydropyrrolo[3,4-f]isoindole-1,3(2H,5H)-dione], on CBP, the Dmax was > 90%. For the same compound, the DC50 on CBP is < 0.01 µM. Also, the pIC50 in the assay with HL60 and in the assay with 22Rv1 cells was > 7.00 each time.
For the compound `CC(=O)N1CCc2c(c(N3CCCc4cc(-c5cnn(C)c5)c(C(F)F)cc43)nn2C[C@H]2CC[C@H](C(=O)N3CCc4cc5c(cc4C3)C(=O)N(C3CCC(=O)NC3=O)C5=O)CC2)C1` (stereo partly drawn) [CP-030, trans-6-(4-((5-acetyl-3-(7-(difluoromethyl)-6-(1-methyl-1H-pyrazol-4-yl)-3,4-dihydroquinolin-1(2H)-yl)-4,5,6,7-tetrahydro-1H-pyrazolo[4,3-c]pyridin-1-yl)methyl)cyclohexane-1-carbonyl)-2-(2,6-dioxopiperidin-3-yl)-5,6,7,8-tetrahydro-1H-pyrrolo[3,4-g]isoquinoline-1,3(2H)-dione], at CBP, the Dmax is < 50% and the DC50 was > 1 µM. In addition, in the assay on HL60, the pIC50 is > 6.00. The pIC50 in the assay on 22Rv1 cells (Homo sapiens, 22Rv1, 96 h) was > 5.00.
For `CC(=O)N1CCc2c(c(N3CCCc4cc(-c5cnn(C)c5)c(C(F)F)cc43)nn2C[C@H]2CC[C@H](C(=O)N3Cc4cc5c(cc4C3)C(=O)N(C3CCC(=O)NC3=O)C5=O)CC2)C1` (stereo partly drawn) [CP-029, trans-6-(4-((5-acetyl-3-(7-(difluoromethyl)-6-(1-methyl-1H-pyrazol-4-yl)-3,4-dihydroquinolin-1(2H)-yl)-4,5,6,7-tetrahydro-1H-pyrazolo[4,3-c]pyridin-1-yl)methyl)cylcohexane-1-carbonyl)-2-(2,6-dioxopiperidin-3-yl)-6,7-dihydropyrrolo[3,4-f]isoindole-1,3(2H,5H)-dione], on CBP, the Dmax was > 50% and the DC50 is < 0.1 µM. Also, the pIC50 in the assay with HL60 was > 5.00. Besides, the pIC50 in the assay with 22Rv1 cells (Homo sapiens, 22Rv1, 96 h) is > 5.00.
Turning to `CC(=O)N1CCc2c(c(N3CCCc4cc(-c5cnn(CCCCCN6CCc7cc8c(cc7C6)C(=O)N(C6CCC(=O)NC6=O)C8=O)c5)c(C(F)F)cc43)nn2C2CCOCC2)C1` (stereo not drawn) [CP-069, 6-(5-(4-(1-(5-acetyl-1-(tetrahydro-2H-pyran-4-yl)-4,5,6,7-tetrahydro-1H-pyrazolo[4,3-c]pyridin-3-yl)-7-(difluoromethyl)-1,2,3,4-tetrahydroquinolin-6-yl)-1H-pyrazol-1-yl)pentyl)-2-(2,6-dioxopiperidin-3-yl)-5,6,7,8-tetrahydro-1H-pyrrolo[3,4-g]isoquinoline-1,3(2H)-dione], on CBP, the Dmax was > 70% and the DC50 is < 0.01 µM. The pIC50 with HL60 was > 7.00. Also, the pIC50 with 22Rv1 cells (Homo sapiens, 22Rv1, 96 h) is > 6.00.
With `CC(=O)N1CCc2c(c(N3CCCc4cc(-c5cnn(C6CCN(C(=O)CN7Cc8cc9c(cc8C7)C(=O)N(C7CCC(=O)NC7=O)C9=O)CC6)c5)c(C(F)F)cc43)nn2C2CCOCC2)C1` (stereo not drawn) [CP-072, 6-(2-(4-(4-(1-(5-acetyl-1-(tetrahydro-2H-pyran-4-yl)-4,5,6,7-tetrahydro-1H-pyrazolo[4,3-c]pyridin-3-yl)-7-(difluoromethyl)-1,2,3,4-tetrahydroquinolin-6-yl)-1H-pyrazol-1-yl)piperidin-1-yl)-2-oxoethyl)-2-(2,6-dioxopiperidin-3-yl)-6,7-dihydropyrrolo[3,4-f]isoindole-1,3(2H,5H)-dione], the Dmax at CBP is > 90%. Also, the DC50 on CBP was < 0.01 µM. Moreover, the pIC50 with HL60 was > 7.00; in the assay on 22Rv1 cells (Homo sapiens, 22Rv1, 96 h), > 7.00.
Turning to `CC(=O)N1CCc2c(c(N3CCCc4cc(-c5cnn(C)c5)c(C(F)F)cc43)nn2C[C@H]2CC[C@@H](C(=O)N3Cc4cc5c(cc4C3)C(=O)N(C3CCC(=O)NC3=O)C5=O)CC2)C1` (stereo partly drawn) [CP-031, cis-6-(4-((5-acetyl-3-(7-(difluoromethyl)-6-(1-methyl-1H-pyrazol-4-yl)-3,4-dihydroquinolin-1(2H)-yl)-4,5,6,7-tetrahydro-1H-pyrazolo[4,3-c]pyridin-1-yl)methyl)cyclohexane-1-carbonyl)-2-(2,6-dioxopiperidin-3-yl)-6,7-dihydropyrrolo[3,4-f]isoindole-1,3(2H,5H)-dione], at CBP, the Dmax is > 50% and the DC50 was < 0.1 µM. Moreover, the pIC50 in the assay on HL60 is > 6.00. In the assay on 22Rv1 cells (Homo sapiens, 22Rv1, 96 h), the pIC50 was > 5.00.
Consider `CC(=O)N1CCc2c(c(N3CCCc4cc(-c5cnn(C)c5)c(C(F)F)cc43)nn2C2CCN(C(=O)CCN3CCc4cc5c(cc4C3)C(=O)N(C3CCC(=O)NC3=O)C5=O)CC2)C1` (stereo not drawn) [CP-003, 6-(3-(4-(5-acetyl-3-(7-(difluoromethyl)-6-(1-methyl-1H-pyrazol-4-yl)-3,4-dihydroquinolin-1(2H)-yl)-4,5,6,7-tetrahydro-1H-pyrazolo[4,3-c]pyridin-1-yl)piperidin-1-yl)-3-oxopropyl)-2-(2,6-dioxopiperidin-3-yl)-5,6,7,8-tetrahydro-1H-pyrrolo[3,4-g]isoquinoline-1,3(2H)-dione], for which the Dmax on CBP is > 50%. Besides, on CBP, the DC50 is < 0.1 µM. Also, the pIC50 in the assay on HL60 was > 6.00; in the assay on 22Rv1 cells (Homo sapiens, 22Rv1, 96 h), > 5.00.
With `CC(=O)N1CCc2c(c(N3CCCc4cc(-c5cnn(CCCN6Cc7cc8c(cc7C6)C(=O)N(C6CCC(=O)NC6=O)C8=O)c5)c(C(F)F)cc43)nn2C2CCOCC2)C1` (stereo not drawn) [CP-073, 6-(3-(4-(1-(5-acetyl-1-(tetrahydro-2H-pyran-4-yl)-4,5,6,7-tetrahydro-1H-pyrazolo[4,3-c]pyridin-3-yl)-7-(difluoromethyl)-1,2,3,4-tetrahydroquinolin-6-yl)-1H-pyrazol-1-yl)propyl)-2-(2,6-dioxopiepridin-3-yl)-6,7-dihydropyrrolo[3,4-f]isoindole-1,3(2H,5H)-dione], on CBP, the Dmax is > 70% and the DC50 was < 0.01 µM. Moreover, the pIC50 in the assay on HL60 was > 7.00. The pIC50 in the assay with 22Rv1 cells (Homo sapiens, 22Rv1, 96 h) was > 5.00.
Take `CC(=O)N1CCc2c(c(N3CCCc4cc(-c5cnn(C)c5)c(C(F)F)cc43)nn2C2CCN(C(=O)CCCN3CCc4cc5c(cc4C3)C(=O)N(C3CCC(=O)NC3=O)C5=O)CC2)C1` (stereo not drawn) [CP-004, 6-(4-(4-(5-acetyl-3-(7-(difluoromethyl)-6-(1-methyl-1H-pyrazol-4-yl)-3,4-dihydroquinolin-1(2H)-yl)-4,5,6,7-tetrahydro-1H-pyrazolo[4,3-c]pyridin-1-yl)piperidin-1-yl)-4-oxobutyl)-2-(2,6-dioxopiperidin-3-yl)-5,6,7,8-tetrahydro-1H-pyrrolo[3,4-g]isoquinoline-1,3(2H)-dione]: on CBP, the Dmax was > 70%. Moreover, at CBP, the half-maximal degradation concentration (DC50) was < 0.01 µM. Further, the pIC50 was > 6.00 with HL60 and > 6.00 with 22Rv1 cells (Homo sapiens, 22Rv1, 96 h).
Turning to `CC(=O)N1CCc2c(c(N3CCCc4cc(-c5cnn(C)c5)c(C(F)F)cc43)nn2C[C@H]2CC[C@@H](C(=O)N3CCc4cc5c(cc4C3)C(=O)N(C3CCC(=O)NC3=O)C5=O)CC2)C1` (stereo partly drawn) [CP-032, cis-6-(4-((5-acetyl-3-(7-(difluoromethyl)-6-(1-methyl-1H-pyrazol-4-yl)-3,4-dihydroquinolin-1(2H)-yl)-4,5,6,- tetrahydro-1H-pyrazolo[4,3-c]pyridin-1-yl)methyl)cyclohexane-1-carbonyl)-2-(2,6-dioxopiperidin-3-yl)-5,6,7,8-tetrahydro-1H-pyrrolo[3,4-g]isoquinoline-1,3(2H)-dione], on CBP, the Dmax was > 50% and the DC50 is < 0.1 µM. In addition, the pIC50 with HL60 was > 6.00. In addition, the pIC50 with 22Rv1 cells (Homo sapiens, 22Rv1, 96 h) is > 5.00.
The matching figures for `CC(=O)N1CCc2c(c(N3CCCc4cc(-c5cnn(C)c5)c(C(F)F)cc43)nn2C2CCN(C(=O)CCN3Cc4cc5c(cc4C3)C(=O)N(C3CCC(=O)NC3=O)C5=O)CC2)C1` (stereo not drawn) [CP-007, 6-(3-(4-(5-acetyl-3-(7-(difluoromethyl)-6-(1-methyl-1H-pyrazol-4-yl)-3,4-dihydroquinolin-1(2H)-yl)-4,5,6,7-tetrahydro-1H-pyrazolo[4,3-c]pyridin-1-yl)piperidin-1-yl)-3-oxopropyl)-2-(2,6-dioxopiperidin-3-yl)-6,7-dihydropyrrolo[3,4-f]isoindole-1,3(2H,5H)-dione]: > 70%, < 0.1 µM, > 6.00 and > 6.00.
With `CC(=O)N1CCc2c(c(N3CCCc4ccc(C(F)F)cc43)nn2C2CCN(C(=O)CN3Cc4cc5c(cc4C3)C(=O)N(C3CCC(=O)NC3=O)C5=O)CC2)C1` (stereo not drawn) [CP-010, 6-(2-(4-(5-acetyl-3-(7-(difluoromethyl)-3,4-dihydroquinolin-1(2H)-yl)-4,5,6,7-tetrahydro-1H-pyrazolo[4,3-c]pyridin-1-yl)piperidin-1-yl)-2-oxoethyl)-2-(2,6-dioxopiperidin-3-yl)-6,7-dihydropyrrolo[3,4-f]isoindole-1,3(2H,5H)-dione], at CBP, the Dmax was > 70% and the DC50 is < 0.1 µM. Further, the pIC50 with HL60 was > 6.00. The pIC50 with 22Rv1 cells (Homo sapiens, 22Rv1, 96 h) was < 5.00.

These data come from patent US20240150360A1 (THE REGENTS OF THE UNIVERSITY OF MICHIGAN, priority 2021, published 2024).
